Results reported in patent publication US6908919B2, “Substituted polycyclic aryl and heteroaryl pyrazinones useful for selective inhibition of the coagulation cascade” (Pharmacia Corporation, priority 1999, dated 2005).
Like-named read-outs stand apart in the source and are kept apart here.

Columns and labels:
[1] = target: T1, recombinant soluble tissue factor and recombinant human factor VIIa (TF-VIIa) (Homo sapiens, UniProt P08709); test: TF-VIIa Assay; type: biochemical
T1 construct: conversion of coagulation factor VII to VIIa by Xa; purchased American Diagnostica, Greenwich Conn; host or cells: VIIa purchased; soluble TF made in house in E. coli
T1 sequence (P08709 61-212 limits assumed): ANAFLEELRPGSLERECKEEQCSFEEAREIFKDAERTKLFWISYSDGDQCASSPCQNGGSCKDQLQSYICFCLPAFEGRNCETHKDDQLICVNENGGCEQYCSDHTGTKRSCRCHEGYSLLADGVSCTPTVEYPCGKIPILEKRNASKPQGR
T1 sequence (P08709 213-466 limits assumed): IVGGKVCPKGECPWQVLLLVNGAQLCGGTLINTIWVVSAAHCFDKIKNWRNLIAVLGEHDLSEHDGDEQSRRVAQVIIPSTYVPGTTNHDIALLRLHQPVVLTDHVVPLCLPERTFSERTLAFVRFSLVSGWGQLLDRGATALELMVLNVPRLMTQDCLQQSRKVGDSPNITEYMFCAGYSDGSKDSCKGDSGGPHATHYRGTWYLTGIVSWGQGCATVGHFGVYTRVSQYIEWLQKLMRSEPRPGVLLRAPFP
T1 sequence (P13726 33-251 partner limits assumed): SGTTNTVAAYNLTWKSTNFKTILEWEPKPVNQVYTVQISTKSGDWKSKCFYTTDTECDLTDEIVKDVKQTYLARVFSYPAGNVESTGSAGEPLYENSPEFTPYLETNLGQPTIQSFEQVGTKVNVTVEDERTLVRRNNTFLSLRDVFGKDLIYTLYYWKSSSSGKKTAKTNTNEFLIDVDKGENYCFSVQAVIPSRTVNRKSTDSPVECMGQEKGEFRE

[2] = target: Human factor Xa (Homo sapiens, UniProt P00742); test: Xa Assay; type: biochemical; set-up: purchased Enzyme Research Laboratories, South Bend Ind; conditions: for inhibition at 100 µM / % Inhibition Factor Xa at 100 μM: at 100 μM inhibitor
Sequence of Human factor Xa (P00742 41-179 limits assumed): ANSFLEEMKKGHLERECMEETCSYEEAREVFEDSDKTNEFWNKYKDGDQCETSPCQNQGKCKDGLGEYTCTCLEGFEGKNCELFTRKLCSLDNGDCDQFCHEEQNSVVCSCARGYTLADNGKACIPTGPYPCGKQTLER
Sequence of Human factor Xa (P00742 235-488 limits assumed): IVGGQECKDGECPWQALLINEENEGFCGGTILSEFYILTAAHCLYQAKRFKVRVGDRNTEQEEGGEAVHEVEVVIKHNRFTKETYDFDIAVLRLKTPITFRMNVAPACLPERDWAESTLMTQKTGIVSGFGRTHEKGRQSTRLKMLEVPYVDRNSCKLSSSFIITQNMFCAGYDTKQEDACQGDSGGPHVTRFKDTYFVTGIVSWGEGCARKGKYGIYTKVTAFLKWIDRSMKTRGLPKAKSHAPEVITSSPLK

| Structure (SMILES) | % Inhibition TF-VIIa (30 µM) ([1]; at 30 µM inhibitor) | % Inhibition Factor Xa (30 µM) ([2]; at 30 µM inhibitor) | IC50 ([1]; read-out: IC50 TF-VIIa) [µM] | also measured |
| --- | --- | --- | --- | --- |
| COc1ccc(-c2c(Cl)nc(NCCN3CCOCC3)c(=O)n2CC(=O)NCc2ccc(C(=N)N)cc2)cc1 [1471-36] | 11% | 6% |  |  |
| COc1ccc(-c2c(Cl)nc(NCCc3ccncc3)c(=O)n2CC(=O)NCc2ccc(C(=N)N)cc2)cc1 [1471-37] | 39% | 7% |  |  |
| COc1ccc(-c2c(Cl)nc(NCCc3cccnc3)c(=O)n2CC(=O)NCc2ccc(C(=N)N)cc2)cc1 [1471-40] | 40% | 11% |  |  |
| N=C(N)c1ccc(CNC(=O)Cn2c(-c3ccc4c(c3)OCO4)c(Cl)nc(NCCN3CCOCC3)c2=O)cc1 [1471-44] | 34% | 13% |  |  |
| CCc1c(Cl)nc(NCCc2cccc(Cl)c2)c(=O)n1CC(=O)NCc1ccc(C(=N)N)cc1 [1471-62] | 4% | 0% |  |  |
| N=C(N)c1ccc(CNC(=O)Cn2c(-c3ccc(-c4ccccc4)cc3)c(Cl)nc(NCc3ccncc3)c2=O)cc1 [1471-67] | 12% | 16% |  |  |
| N=C(N)c1ccc(CNC(=O)Cn2c(-c3ccc(-c4ccccc4)cc3)c(Cl)nc(NCCc3cccc(Cl)c3)c2=O)cc1 [1471-70] | 10% | 12% |  |  |
| N=C(N)c1ccc(CNC(=O)Cn2c(-c3ccc(-c4ccccc4)cc3)c(Cl)nc(NCCc3ccccc3)c2=O)cc1 [1471-71] | 6% | 0% |  |  |
| N=C(N)c1ccc(CNC(=O)Cn2c(-c3ccc(-c4ccccc4)cc3)c(Cl)nc(NCCc3cccnc3)c2=O)cc1 [1471-72] | 15% | 22% |  |  |
| N=C(N)c1ccc(CNC(=O)Cn2c(-c3ccccc3)c(Cl)nc(NC3Cc4ccccc4C3)c2=O)cc1 [1507-08] | 7% | 1% |  |  |
| N=C(N)c1ccc(CNC(=O)Cn2c(-c3ccccc3)c(Cl)nc(NCc3ccccn3)c2=O)cc1 [1507-24] | 0% | 15% |  |  |
| N=C(N)c1ccc(CNC(=O)Cn2c(-c3ccccc3)c(Cl)nc(NCC(F)(F)F)c2=O)cc1 [1507-41] | 48% | 17% |  |  |
| N=C(N)c1ccc(CNC(=O)Cn2c(-c3ccccc3)c(Cl)nc(NCc3cc(F)cc(C(F)(F)F)c3)c2=O)cc1 [1512-29] | 47% | 4% |  |  |
| Cc1cccc(Cl)c1CNc1nc(Cl)c(-c2ccccc2)n(CC(=O)NCc2ccc(C(=N)N)cc2)c1=O [1512-31] | 43% | 14% |  |  |
| N=C(N)c1ccc(CNC(=O)Cn2c(-c3ccccc3)c(Cl)nc(NCc3cccc(OC(F)(F)F)c3)c2=O)cc1 [1512-40] | 40% | 3% |  |  |
| N=C(N)c1ccc(CNC(=O)Cn2c(-c3ccccc3)c(Cl)nc(NCc3c(F)cccc3C(F)(F)F)c2=O)cc1 [1512-44] | 43% | 6% |  |  |

| Structure (SMILES) | % Inhibition TF-VIIa (30 µM) ([1]; at 30 µM inhibitor) | % Inhibition Factor Xa (30 µM) ([2]; at 30 µM inhibitor) | IC50 ([1]; read-out: IC50 TF-VIIa) [µM] | also measured |
| --- | --- | --- | --- | --- |
| Cc1cc(Cl)cc(Cl)c1CNc1nc(Cl)c(-c2ccccc2)n(CC(=O)NCc2ccc(C(=N)N)cc2)c1=O [1512-45] | 27% | 11% |  |  |
| N=C(N)c1ccc(CNC(=O)Cn2c(Cc3ccccc3)c(Cl)nc(NCCc3ccccc3)c2=O)cc1 [Example 20] | 41% @ 30 | 6% @ 30 |  |  |
| N=C(N)c1ccc(CNC(=O)Cn2c(-c3ccc(-c4ccccc4)cc3)c(Cl)nc(NCCc3cccnc3)c2=O)cc1 [Example 21] |  |  |  | % Inhibition TF-VIIa (30 µM) [1]: 8% @ 30; % Inhibition Factor Xa (30 µM) [2]: 21% @ 30 |
| N=C(N)c1ccc(CNC(=O)Cn2c(-c3ccc(-c4ccccc4)cc3)c(Cl)nc(NCCc3ccc(Cl)cc3)c2=O)cc1 [Example 22] |  |  |  | % Inhibition TF-VIIa (30 µM) [1]: 0% @ 30; % Inhibition Factor Xa (30 µM) [2]: 13% @ 30 |
| N=C(N)NCC#CCNC(=O)Cn1c(-c2ccccc2)cnc(NCCc2ccccc2)c1=O [Example 36] | 5% | 0% |  |  |
| CC(C)Nc1nc(Cl)c(-c2cccc([N+](=O)[O-])c2)n(CC(=O)NCc2ccc(C(N)=NO)cc2)c1=O [Example 61] | 1% | 0% |  |  |
| CC(=O)Nc1cccc(-c2c(Cl)nc(NC(C)C)c(=O)n2CC(=O)NCCc2ccc(C(=N)N)cc2)c1 [Example 68] | 32% | 6% |  |  |
| Nc1cccc(-c2c(Cl)nc(NC3CCC3)c(=O)n2CC(=O)NCCc2ccccc2)c1 [Example 89] | 5% @ 30 | 5% @ 30 |  |  |
| Nc1cccc(-c2c(Cl)nc(NC3CCC3)c(=O)n2CC(=O)NCc2ccccc2)c1 [Example 99] | 6% @ 30 | 8% @ 30 |  |  |
| N=C(N)c1ccc(CNC(=O)Cn2c(-c3ccc(C(=N)N)cc3)c(Cl)nc(NC3CCC3)c2=O)cc1 [Example 113] |  |  | 6.19 | IC50 [2]: 14 µM |
| COC(=O)c1cc(N)cc(-c2c(Cl)nc(NC(C)C)c(=O)n2CC(=O)NCc2ccc(C(=N)N)cc2)c1 [Example 125] |  |  | 0.038 | inhibition at 100 µM [2]: 36% |
| CC(C)Nc1nc(Cl)c(-c2cc(N)cc(C(N)=O)c2)n(CC(=O)NCc2ccc(C(=N)N)cc2)c1=O [Example 128-1] |  |  | 0.022 | inhibition at 100 µM [2]: 25% |
| CC(C)Nc1nc(Cl)c(-c2cc(N)cc(C(=O)N(C)Cc3ccccc3)c2)n(CC(=O)NCc2ccc(C(=N)N)cc2)c1=O [Example 128-2] |  |  | 0.0256 | inhibition at 100 µM [2]: 41% |
| CC(CNc1nc(Cl)c(-c2cccc(N)c2)n(CC(=O)NCc2ccc(C(=N)N)cc2)c1=O)C(=O)O (stereo not shown) [Example 129] |  |  |  | IC50 ([1]; cell adds 'at 100 μM'): 0.058 µM; inhibition at 100 µM [2]: 22% |
| CC(CC(=O)O)Nc1nc(Cl)c(-c2cccc(N)c2)n(CC(=O)NCc2ccc(C(=N)N)cc2)c1=O (stereo not shown) [Example 130] |  |  |  | IC50 ([1]; read-out: IC50 TF-VIIa, cell printed 'at 100 μM' without %, cell adds 'at 100 μM'): 0.18 µM; % Inhibition Factor Xa at 100 μM [2]: 24% at 100 μM |
| N=C(N)c1ccc(CNC(=O)C(Cc2ccccc2)n2c(-c3ccccc3)c(Cl)nc(NCCc3ccccc3)c2=O)cc1 (stereo not shown) [Example 1517-14] |  |  |  | % Inhibition TF-VIIa (30 µM) ([1]; at 30 µM): 30%; % Inhibition Factor Xa (30 µM) ([2]; at 30 µM): 0% |

The next lines start with results.

| % Inhibition TF-VIIa (30 µM) ([1]; at 30 µM inhibitor) | % Inhibition Factor Xa (30 µM) ([2]; at 30 µM inhibitor) | IC50 ([1]; read-out: IC50 TF-VIIa) [µM] | Structure (SMILES) | also measured |
| --- | --- | --- | --- | --- |
|  |  | 0.0082 | CC(C)Nc1nc(Cl)c(-c2cc(N)cc(C(=O)NC(C)c3ccccc3)c2)n(CC(=O)NCc2ccc(C(=N)N)cc2)c1=O (stereo not shown) [Example 128-3] | inhibition at 100 µM [2]: 40% |
|  |  | 0.0847 | CC(C)Nc1nc(Cl)c(-c2cc(N)cc(C(=O)NCc3ccc(Cl)cc3Cl)c2)n(CC(=O)NCc2ccc(C(=N)N)cc2)c1=O [Example 128-5] | % Inhibition Factor Xa at 100 μM [2]: 43% at 100 μM |
|  |  | 0.242 | CC(C)Nc1nc(Cl)c(-c2cc(N)cc(C(=O)NCc3ccc(C(C)(C)C)cc3)c2)n(CC(=O)NCc2ccc(C(=N)N)cc2)c1=O [Example 128-7] | inhibition at 100 µM [2]: 40% |
|  |  | 0.067 | CC(C)Nc1nc(Cl)c(-c2cc(N)cc(C(=O)NCc3ccc(Br)cc3)c2)n(CC(=O)NCc2ccc(C(=N)N)cc2)c1=O [Example 128-8] | % Inhibition Factor Xa at 100 μM [2]: 44% at 100 μM |
|  |  | 0.007 | CC(C)Nc1nc(Cl)c(-c2cc(N)cc(C(=O)NCc3ccccc3)c2)n(CC(=O)NCc2ccc(C(=N)N)cc2)c1=O [Example 128-9] | inhibition at 100 µM [2]: 36% |
|  |  | 0.0074 | CC(C)CNC(=O)c1cc(N)cc(-c2c(Cl)nc(NC(C)C)c(=O)n2CC(=O)NCc2ccc(C(=N)N)cc2)c1 [Example 128-14] | inhibition at 100 µM [2]: 24% |
|  |  | 0.033 | COc1ccc(CCNC(=O)c2cc(N)cc(-c3c(Cl)nc(NC(C)C)c(=O)n3CC(=O)NCc3ccc(C(=N)N)cc3)c2)cc1 [Example 128-20] | inhibition at 100 µM [2]: 39% |
|  |  | 6.4 | C[C@H](Nc1nc(Cl)c(-c2cccc(N)c2)n(CC(=O)NCc2ccc(C(=N)N)cc2)c1=O)C(=O)O [Example 135] | % Inhibition Factor Xa at 100 μM [2]: 6% at 100 μM |
|  |  | 10.7 | N=C(N)c1ccc(C(=O)NCCn2c(-c3cccc(N)c3)c(Cl)nc(NC3CCC3)c2=O)cc1 [Example 136] | inhibition at 100 µM [2]: 15% |
|  |  | 43.2 | N=C(N)c1ccc(C(O)CCCn2c(-c3cccc(N)c3)c(Cl)nc(NC3CCC3)c2=O)cc1 (stereo not shown) [Example 143] | inhibition at 100 µM [2]: 30% |
|  | 6% |  | NC1=NCCSc2cc(CNC(=O)Cn3c(-c4cccc(N)c4)c(Cl)nc(NC4CCC4)c3=O)ccc21 [Example 154] | inhibition at 30 µM ([1]; 1 h, at 30 µM inhibitor): 7% |
| 43% | 0% |  | N=C(N)c1ccc(CNC(=O)C(Cc2ccccc2)n2c(-c3ccccc3)c(Cl)nc(NC3CCC3)c2=O)cc1 (stereo not shown) [Example 1517-08] |  |
